Several values for one entry are separate records, joined by “and”; a condition that tells them apart may be missing. Equal values may be shown once. Read-outs that look alike come from different tables or passages of the source.
Assays:
Fusarium graminearum [1] = assay type: in vivo
[2] = test system: Fusarium nivale (var. majus); assay: Fusarium nivale (var. majus) test (wheat)/protective; assay type: in vivo; conditions: 1000 ppm active compound, protective, evaluation 5 days after inoculation
Outline: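 Protective spray of young wheat plants at the stated rate (compound in dimethylacetamide with emulsifier, diluted in water), then inoculation with Fusarium nivale spores once dry. Plants kept at 10 °C and 100% humidity; scored 5 days after inoculation as % efficacy, where 0% equals untreated control and 100% means no infection.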

Venturia inaequalis = assay: Venturia test (apple)/protective; assay type: in vivo; conditions: 100 ppm active compound, protective, evaluation 10 days after inoculation
Outline: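 Young apple plants sprayed protectively with compound (in acetone/dimethylacetamide with alkylaryl polyglycol ether, diluted in water) at the stated rate, then inoculated with V. inaequalis conidia once dry. Held 1 day at ~20° C, 100% humidity, then greenhouse ~21° C, ~90% humidity; efficacy scored 10 days post-inoculation (0% = control, 100% = no infection).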

Fusarium graminearum [3] = assay: microbe, parasite or virus in culture; assay type: cell-based
Phytophthora infestans = assay type: in vivo
Pyricularia oryzae = conditions: in vivo
Sphaerotheca fuliginea = assay: Sphaerotheca test (cucumber)/protective; assay type: in vivo
Outline: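 Protective test: young cucumber plants sprayed with compound (DMF/alkylaryl polyglycol ether concentrate diluted in water) at the stated rate, inoculated with S. fuliginea spores 1 day later, then kept in greenhouse at 23 °C, 70% RH. Efficacy scored 7 days post-inoculation; 0% equals untreated control, 100% means no infection.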

Uromyces appendiculatus = assay: Uromyces test (bean)/protective; assay type: in vivo
Outline: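 Young bean plants sprayed with compound formulated in acetone/dimethylacetamide with emulsifier, inoculated with Uromyces appendiculatus spores after drying, held 1 day at ~20 °C and 100% humidity, then greenhouse ~21 °C, ~90% humidity. Efficacy scored 10 days post-inoculation, 0% = untreated control, 100% = no infection.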

DON/AcDON production = assay: microbe, parasite or virus in culture; assay type: cell-based, Fusarium graminearum; conditions: 7 days at 28° C.
Puccinia triticina = Puccinia triticina test (wheat)/protective; assay type: in vivo
Outline: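 Protective test: young wheat plants sprayed with compound (dimethylacetamide/alkylaryl polyglycol ether formulation, water-diluted) at stated rate, then inoculated with Puccinia triticina spores once dry; 48 h at 20 °C, 100% RH, then greenhouse ~20 °C, ~80% RH. Efficacy scored 8 days post-inoculation, 0% = control, 100% = no infection.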

Septoria tritici = Septoria tritici test (wheat)/protective; assay type: in vivo
Method: Solvent: 49 parts by weight of N,N-dimethylacetamide
Emulsifier: 1 part by weight of alkylaryl polyglycol ether
To produce a suitable preparation of active compound, 1 part by weight of active compound is mixed with the stated amount of solvent and emulsifier, and the concentrate is diluted with water to the desired concentration.
To test for protective activity, young plants are sprayed with the active compound preparation at the stated application rate. After the spray coating has dried on, the plants are sprayed with a spore suspension of Septoria tritici. The plants remain in an incubation cabin at 20° C. and 100% relative atmospheric humidity for 48 hours. The plants are then placed under a translucent hood at 15° C. and 100% relative atmospheric humidity for a further 60 hours.
The plants are placed in a greenhouse at a temperature of about 15° C. and a relative atmospheric humidity of 80%.
Evaluation is carried out 21 days after the inoculation. 0% means an efficacy which corresponds to that of the control, whereas an efficacy of 100% means that no infection is observed.

Rhizoctonia solani = assay: Rhizoctonia test (rice)/protective; assay type: in vivo; conditions: 250 ppm active compound, protective, evaluation 4 days after inoculation
Method: Solvent: 28.5 parts by weight of acetone
Emulsifier: 1.5 parts by weight of alkylaryl polyglycol ether
To produce a suitable preparation of active compound, 1 part by weight of active compound is mixed with the stated amount of solvent, and the concentrate is diluted with water and the stated amount of emulsifier to the desired concentration.
To test for protective activity, young rice plants are sprayed with the active compound preparation at the stated application rate. 1 day after the treatment, the plants are inoculated with hyphae of Rhizoctonia solani. The plants are then placed in a greenhouse at 100% relative atmospheric humidity and 25° C.
Evaluation is carried out 4 days after the inoculation. 0% means an efficacy which corresponds to that of the control, whereas an efficacy of 100% means that no infection is observed.

Leptosphaeria nodorum = Leptosphaeria nodorum test (wheat)/protective; assay type: in vivo
Outline: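 Young wheat plants were sprayed protectively, then inoculated 1 day later with L. nodorum spores and held 48 h at 100% humidity and 22° C. They were then kept in a greenhouse at 90% humidity and 22° C. Efficacy was scored 7-9 days post-inoculation, where 0% equals control and 100% means no infection.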

Pyrenophora teres = Pyrenophora teres test (barley)/protective; assay type: in vivo
Outline: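 Protective test: young barley plants sprayed at the stated rate with compound in DMF/alkylaryl polyglycol ether diluted with water, inoculated with P. teres spores 1 day later, kept 48 h at 100% rel. humidity and 22° C., then greenhouse at 80% and 20° C. Efficacy scored 7-9 days post-inoculation (0% = control, 100% = no infection).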

Botrytis cinerea = assay: Botrytis test (bean)/protective; assay type: in vivo; conditions: 100 ppm active compound, protective, evaluation 2 days after inoculation
Outline: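 Young bean plants sprayed at the stated rate with compound in acetone/dimethylacetamide plus alkylaryl polyglycol ether emulsifier, diluted in water. Once dry, each leaf got 2 agar pieces colonized by Botrytis cinerea; kept dark at about 20° C., 100% humidity. Infected area scored after 2 days; 0% = control, 100% = no infection.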

Cochliobolus miyabeanus = assay: Cochliobolus test (rice)/protective; assay type: in vivo; conditions: 250 ppm active compound, protective, evaluation 4 days after inoculation
Alternaria solani = assay: Alternaria test (tomato)/protective; assay type: in vivo
Outline: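 Young tomato plants were sprayed with compound (DMF/emulsifier formulation diluted in water) and inoculated with A. solani spores 1 day later. Plants were kept 24 h at 100% RH and 22 °C, then at 96% RH and 20 °C. Efficacy was scored 7 days post-inoculation, where 0% equals untreated control and 100% means no infection.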

Gibberella zeae = conditions: in vivo
[4] = log P determination by HPLC retention times (alkan-2-one calibration)
[5] = 500 ppm active compound, tomato, protective, evaluation 7 days after inoculation

SMILES | efficacy in % (Fusarium graminearum [1]; in vivo) [%] | efficacy in % [2] [%] | efficacy in % (Venturia inaequalis) [%] | % inhibition of the fungal growth of Fusarium graminearum at 50 μM (Fusarium graminearum [3]) [%] | efficacy in % (Phytophthora infestans; in vivo) [%] | efficacy in % (Pyricularia oryzae) [%] | efficacy in % (Sphaerotheca fuliginea; in vivo) [%] | efficacy in % (Uromyces appendiculatus; in vivo) [%] | % inhibition of DON/AcDON at 50 μM (DON/AcDON production) [%] | efficacy in % (Puccinia triticina; in vivo) | efficacy in % (Septoria tritici; in vivo) [%] | efficacy in % (Rhizoctonia solani) [%] | efficacy in % (Leptosphaeria nodorum; in vivo) [%] | efficacy in % (Pyrenophora teres; in vivo) [%] | efficacy in % (Botrytis cinerea) [%] | efficacy in % (Cochliobolus miyabeanus) [%] | efficacy in % (Alternaria solani; in vivo) [%] | further results
O=C(Cc1ccccc1)Nc1cc(-c2c(-c3ccc(F)cc3)nn3c2CCCC3)ccn1 [Example 34] | 100 | 100 | 95 | 98 | 95 | 95 | 100 | 95 | 99 | 94% | 93 | 85 | 95 | 94 | 99 | 90 | 100 | efficacy in % (Gibberella zeae): 80%
CC(C)C(=O)Nc1cc(-c2c(-c3ccc(F)cc3)nn3c2CCCC3)ccn1 [Example 28] | 100 | 100 | 100 | 100 | 95 | 90 | 100 | 95 | 99 | 100% | 100 | 100 | 90 | 100 | 95 | 95 | 100 | efficacy in % (Gibberella zeae): 85%
O=C(Nc1cc(-c2c(-c3ccc(F)cc3)nn3c2CCCC3)ccn1)C1CC1 [Example 20] | 94 | 100 | 99 | 95 | 100 | 92 | 100 | 94 | 100 | 100% | – | 100 | 95 | 100 | 98 | 96 | 100 | –
CC(=O)Nc1cc(-c2c(-c3ccccc3)nn3c2CCCC3)ccn1 [Example 19] | 100 | 100 | 93 | 100 | 100 | 92 | 98 | 94 | 100 | 100% and 95% | 100 | 100 | 95 | 100 | 99 | 96 | 100 | –
COC(=O)Nc1cc(-c2c(-c3ccc(F)cc3)nn3c2CCCC3)ccn1 [Example 26, Methyl{4-[2-(4-fluorophenyl)-4,5,6,7-tetrahydropyrazolo[1,5-a]pyridin-3-yl]-pyridin-2-yl}carbamate] | – | 86 | 93 | – | – | – | – | – | – | – | – | – | – | – | 93 | – | – | efficacy in % (Fusarium graminearum [1]; 1000 ppm active compound, barley, protective, evaluation 5 days after inoculation): 88%; inhibition at 50 µM (Fusarium graminearum [3]; Fusarium graminearum, 72 h, read-out: % inhibition of the fungal growth of Fusarium graminearum at 50 μM): 57%; efficacy in % (Phytophthora infestans; [5]): 95%; efficacy in % (Sphaerotheca fuliginea; 500 ppm active compound, cucumber, protective, evaluation 7 days after inoculation): 98%; efficacy in % (Uromyces appendiculatus; 100 ppm active compound, bean, protective, evaluation 10 days after inoculation): 94%; inhibition at 50 µM (DON/AcDON production; Fusarium graminearum, 168 h): 98%; efficacy in % (Puccinia triticina; 1000 ppm active compound, wheat, protective, evaluation 8 days after inoculation): 100%; efficacy in % (Septoria tritici; 1000 ppm active compound, wheat, protective, evaluation 21 days after inoculation): 86%; efficacy in % (Leptosphaeria nodorum; 500 ppm active compound, wheat, protective, evaluation 7-9 days after inoculation): 80%; efficacy in % (Pyrenophora teres; 500 ppm active compound, barley, protective, evaluation 7-9 days after inoculation): 95%; chromatographic logP ([4]; log P(HCOOH), HCOOH, preparation examples in the text): 2.11; chromatographic logP ([4]; log P, values marked [a] in Table 1): 2.11; chromatographic logP ([4]; log P, values marked [b] in Table 1): 2.56; efficacy in % (Alternaria solani; [5]): 100%
CC(C)CC(=O)Nc1cc(-c2c(-c3ccc(F)cc3)nn3c2CCCC3)ccn1 [Example 30] | 88 | 86 | 99 | 88 | 80 | 94 | 95 | 95 | 99 | 88% | 100 | 100 | 90 | 100 | 100 | 96 | 100 | –
O=C(Nc1cc(-c2c(-c3ccccc3)nn3c2CCCC3)ccn1)C1CC1 [Example 21] | 100 | 100 | 99 | 97 | 90 | 98 | 100 | 94 | 100 | 95% | 100 | 100 | 95 | 100 | 98 | 96 | 100 | –
CCC(=O)Nc1cc(-c2c(-c3ccccc3)nn3c2CCCC3)ccn1 [Example 8] | 88 | 100 | 96 | 100 | 95 | – | 99 | 100 | 99 | 100% | 100 | – | 95 | 100 | 99 | – | 100 | –

Reference: patent US8507472B2 (priority 2010, dated 2013)
